In brackets after ≈: the same amount, converted by molar mass.

The IC90 is the concentration needed for an effect of 90%. Higher therefore signals a need for much substance.

Assay [1] concerns protein sulfhydryl (protein-SH) groups. Briefly: Protein sulfhydryl groups (dibromobimane assay). In kind it is cell-based. The settings on record: 12 h treatment. Here is the method: Protein reduced thiol groups (Protein-SH) were measured by dibromobimane assays with minor modifications (PMID:20463849). The 6-well plated cells (500,000 cells) were scraped in 0.6 mL PBS and 200 μL Perchloric acid (6 N) was added to precipitate proteins. The samples were incubated for 5 min in ice, centrifuged (14,000×g) Supernatants containing small peptides and glutathione were discarded and pellets were resuspended in 100 μL NaOH 0.1N, neutralized with 100 μL ice cold Perchloric acid (0.1 N), and 0.1 N PBS was added to keep pH constant. A stock solution of 4 mM dibromobimane in DMSO was added to a final concentration 40 μM, and incubated for 30 30 min at 37° C. Dibromobimane-protein fluorescence was measured at Ex=393 and, Em=477 nm.

Assay [2] concerns NRF2, GCLC, ER stress markers. Nature of the assay: Western blot of NRF2, GCLC and ER stress markers. The settings on record: MEFs, MDA-MB231, MCF-7; 8-12 h. In kind it is cell-based. On the procedure: Western blot. Protein lysates were prepared using RIPA buffer containing 5% sodium deoxycholate, 0.1% SDS, 0.1% Igepal in PBS with a cocktail of protease and phosphatase inhibitors (1 mM PMSF, 1 mM sodium orthovanadate, 1 mM NaF, and 30 μL/mL aprotinin (Sigma-Aldrich, USA)) and clarified by centrifugation. Protein concentration was determined using Bradford Protein Assay Reagent (Biorad, Hercules, Calif.). Equal amounts of protein were resolved using 8-12% SDS polyacrylamide gel, transferred onto nitrocellulose membranes (Hybond-ECL, GE Healthcare Lifesciences, Piscataway, N.J.) and detected using Lumiglo system (Cell Signaling Technology, Calif.) and x-ray films. Primary antibodies included COX-2 (#4842), NRF2 (D1C9), p-JNK1/2 (Thr183/Tyr185, #4671), p-p38 (Thr180/Tyr182, #9216), p-ERK1/2 (Thr202/Tyr204, #9101), BiP/GRP78 (C50B12), IRE1a (14C10), CHOP (L63F7) and PERK (D11A8) from Cell Signaling Technology; p-IRE1a (Ser724; NB100-2323) from Novus Biologicals; GCLC (Ab41463), beta-actin (ab8227) and ATF6 (Ab37149) from Abcam; p-PERK (Thr 981, sc-32577) and ATF3 (C19) were purchased from Santa Cruz. All primary antibodies were used at 1:1000 dilutions and secondary antibodies were 1:3000 in TBS-T with 5% BSA.
Background: Immunoblotting shows a protein as a band on a membrane.

In another assay the test system is Kc167 cells. Briefly: Metabolomics of GSH metabolites in fly cells. It counts as cell-based, D. melanogaster. The settings on record: MMS 40 μg/mL. Here is the method: The 2.4×10^6 Kc167 or 2×10^6 MEFs were seeded using complete growth medium on Day 0 in a T-175 cell culture flask and were allowed to grow for three days. After treatments with MMS (40 μg/mL), cells were harvested and centrifuged at 8 and 24 hours, and washed using ice-cold PBS. The cell numbers were adjusted to 90×10^6 (Kc167) or 24×10^6 (MEF) and provided as 100 μL of packed cell pellet for metabolic profiling. Metabolomic profiling and data analysis was provided through mView service performed by Metabolon Inc., Durham, N.C. Five biological replicates of each group were used for analysis at each time point. In addition, detailed changes in nucleotide pools were measured in a separate set of experiments. Nucleotide quantification and Metabolomics Pathway Enrichment Analyses were performed through MetaboAnalyst 2.0 (Xia et al., 2012, Nucleic Acids Res 40(Web Server issue), W127-33; Xia et al., 2009, Nucleic Acids Res 37(Web Server issue), W652-60).

Assay [3] has as its system Kc167 cells, MEFs, and MDA-MB231 breast cancer cells. Nature of the assay: Cell viability (CellTiter-Glo). The settings on record: Drosophila melanogaster, MDA-MB-231, 24 h. In kind it is cell-based, D. melanogaster, mouse, human. On the procedure: The D. melanogaster embryonic cell line Kc167 was grown in Schneider medium (Invitrogen, Carlsbad, Calif.) supplemented with 10% heat-inactivated (56° C./30 min) fetal bovine serum (FBS), penicillin and streptomycin at 22° C. in a humidified incubator. Primary MEFs were obtained by harvesting 14.5-day C57BL/6J embryos as previously described (Ravi et al., 2009, PLoS Genet 5, e1000527). Briefly, fetal liver and head were removed and the remainder of the embryo was mechanically disaggregated in plating medium. A suspension of single-cells was plated in DMEM (plus 10% FBS, 100 U/mL penicillin and 100 μg/mL streptomycin). MEFs were grown for two passages before freezing aliquots. Aliquots were taken and expanded as needed for each experiment. MDA-MB231, SkBr3 and MCF-7 breast cancer cells lines were obtained from ATCC and grown in DMEM supplemented with 10% inactivated FBS plus antibiotics in a 37° C. humidified incubator at […] atmosphere. Cells were kept and treated in the exponential phase of growing (60-70% confluence). […] DMSO concentrations were kept to a maximum of 0.1% for all experiments. Cell viability was assessed using CellTiter-Glo Luminescent Viability assay (Promega) in 384 or 96-well plates white-border clear-bottom plated cells. For caspase-3/7 activity, Caspase-Glo 3/7 Assay kits were used (Promega). For caspase assays, the cells were seeded in 96-well plates and assayed directly after treatments. Caspase-3/7 inhibitor (Z-DEVD-fmk) was used to ensure assay specificity. LDH release into culture medium was quantified by Cytotox-96 Non-Radioactive assay kit in agreement with instructions (Promega).

As for `COS(C)(=O)=O` [MMS, methyl-methanesulfonate], the protein sulfhydryl residues entry in assay [1] is recorded as “deplete protein sulfhydryl residues”. In addition, in assay [2], the “NRF2 and GCLC protein levels” value was “rapidly increased in total and nuclear fractions”. For the same compound, the “increase in methyl-GSH” value in the assay on Kc167 cells is listed as 300 fold. In assay [3], this compound registered a concentration for an effect of 90% (IC90) of 80 µg/mL (≈ 726 µM).
